Assay results reported in patent publication US5859037A, “Sulfonylurea-glitazone combinations for diabetes” (Warner-Lambert Company, priority 1997, dated 1999).
Like-named read-outs stand apart in the source and are kept apart here.

Legend:
[1] = tested on: postprandial glucose tolerance; assay: 2-hour meal tolerance test (postprandial glucose, insulin, C-peptide AUC); type: in vivo, patients; conditions: Month 12, vs glyburide, p ≤0.05; all combination doses and 600 mg troglitazone monotherapy
Protocol: The effect of treatment on the pattern of postprandial glucose tolerance (standard 2-hour meal tolerance test) was determined in a subset of patients.
A 2-hour meal tolerance test to assess postprandial glucose and insulin excursions in response to a premeasured meal (breakfast) was conducted in a subset of patients at baseline, Week 24, and at the end of treatment. […] Additional parameters included total insulin and C-peptide. Analyses of the meal tolerance parameters were based on observations at the end of treatment; observations from Week 24 were not carried forward.
Summary statistics for glucose, insulin, and C-peptide levels every 30 minutes for 2 hours were provided at baseline, and Months 6 and 12.
The change from baseline in each response variable was compared between treatment groups using analysis of covariance. The analysis included all patients who had baseline and Month 12 test data. The primary model included effects due to treatment and center and baseline as covariate. The 95% confidence interval for the treatment difference based on the primary model was provided for each pairwise comparison of treatment groups.
Meal tolerance testing was performed in a subset of patients at baseline and at Months 6 and 12. Postprandial glucose, insulin, and C-peptide levels were determined at 30, 60, 90, and 120 minutes after a standard meal (Sustacal HC) (Table 13).

[2] = Trough plasma concentrations of troglitazone; type: in vivo, patients; conditions: Week 12; for concentration at 2016 h: human, plasma, po, alone or + glyburide, read-out: Mean (% RSD) Trough Plasma Concentration of Troglitazone
Protocol: Trough plasma concentrations of troglitazone were determined at Week 12. Blood samples (7 mL) were collected in heparinized glass tubes. Following centrifugation, plasma samples were transferred to plastic tubes and stored at -20° C. until assayed. Plasma samples were assayed at Corning Hazleton, Inc., PO Box 7545, Madison, Wis., 53707, using a validated liquid chromatographic method with electrochemical detection. The minimum quantitation limit for troglitazone was 5 ng/mL. Concentrations below the limit of quantitation were reported as zero. The analysts remained blinded to the treatment randomization code during sample analysis.

[3] = patients studied to date; cited from earlier work

Structure (SMILES): Cc1c(C)c2c(c(C)c1O)CCC(C)(COc1ccc(CC3SC(=O)NC3=O)cc1)O2 (stereo not drawn) [Troglitazone]
- mean glucose AUC(0-2 hr) (result in words) [1]: decreased significantly (p ≤0.05) compared with glyburide
- trough plasma troglitazone concentrations (result in words) ([2]; dose dependence, mono versus combination): Mean trough troglitazone concentrations generally increased with increasing troglitazone doses
- concentration at 2016 h ([2]; 200 mg QD): 145 ng/mL
- concentration at 2016 h ([2]; 400 mg QD): 238 ng/mL
- concentration at 2016 h ([2]; 600 mg QD): 285 ng/mL
- hypoglycemia (result in words) [3]: has not caused hypoglycemia
